The results in this text go back to article PMC6027674, “Acetylcholinesterase Inhibition and Antioxidant Activity of N-trans-Caffeoyldopamine and N-trans-Feruloyldopamine” (Scientia Pharmaceutica, 2018).

Test [1] can be described thus: ABTS radical cation scavenging assay. To be noted: 7 min, room temperature, 734 nm; mean ± SD, n = 3; read-out: ABTS^•+ Scavenge IC50. As to the method: The 2,2′-azinobis(3-ethylbenzothiazoline-6-sulphonic acid) radical cation (ABTS^•+), which absorbs at 734 nm, is formed by oxidation of the commercially available neutral species. This oxidation can be done by potassium persulphate, manganese (IV) oxide, or electrochemical methods. In the presence of a hydrogen-donating antioxidant, the […] quenches the hydrogen atom, which is followed by decolorization. In this study, the ABTS^•+ was produced by mixing 7 mM ABTS stock solution with 2.45 mM potassium persulfate and allowing the mixture to stand in a dark at room temperature for 16 h before use. Different concentrations of the tested compounds (0.1 mL) were added to 1 mL ABTS^•+ solution. The reaction mixtures were mixed thoroughly, incubated at room temperature for 7 min, and the absorbance was recorded at 734 nm. The ability to scavenge the ABTS radical cation was calculated using the following equation:(3) % ABTS radical cation scavenge = (1 − At/A0) × 100 where A0 is the absorbance of the control and At is the absorbance of the tested compound. The ABTS^•+ solution without any sample was used as a control, prepared by using the same procedure. From the percentage of the scavenging activity at different tested compounds concentrations, IC50 values were calculated and compared with those of standard L(+)-ascorbic acid solution.
(§1) All data on AChE inhibition/antioxidant activity are the average of triplicate analyses (n = 3) and the data were recorded as mean ± standard deviation. Regression analysis was performed to calculate the dose-response relation and IC50 values were obtained from the equations y = a ± bx.

Test [2] is described as follows: DPPH free radical scavenging assay. To be noted: 30 min, room temperature, dark, 517 nm; mean ± SD, n = 3; read-out: DPPH^• Scavenge IC50.
Description: The 2,2-diphenyl-1-pycrylhydrazyl free radical (DPPH^•) scavenging method is widely used to evaluate the free radical scavenging ability of natural antioxidants. 2,2-Diphenyl-1-pycrylhydrazyl is a stable nitrogen centered free radical, which has a violet color that changes to yellow after reduction by the process of either hydrogen atom or single electron transfer mechanism. Compounds that are able to execute this reaction can be considered antioxidants and therefore radical scavengers. In the radical form, the DPPH molecule has an absorbance of 517 nm, which disappears after the acceptance of an electron or hydrogen radical from an antioxidant compound, to become a stable diamagnetic molecule. The DPPH^• scavenging activities of the tested compounds were estimated using the method of [35] with slight modification. To 1 mL methanolic solution of DPPH^• (0.08 mM), 0.1 mL of the tested compounds were added. The resulting mixture was shaken thoroughly and allowed to stand at room temperature in the dark for 30 min, after which the absorbance of the solution was measured at 517 nm. L(+)-Ascorbic acid was used as the positive control. The negative control contained DPPH^• and methanol. The ability to scavenge DPPH radical was calculated using the equation:(2) % DPPH radical scavenge = (1 − At/A0) × 100 where A0 is the absorbance of the control and At is the absorbance of the tested compound. The DPPH^• absorbance decreases with an increase in the DPPH radical scavenging activity.
as §1

The nature of test [3]: Ferric-reducing antioxidant power (FRAP) assay. To be noted: pH 3.6, 6 min, 593 nm; mean ± SD, n = 3. On the procedure: The FRAP assay is a typical electron transfer-based method that measures the reduction of (Fe^3+)-ligand complex to the intensely blue-colored ferrous (Fe^2+)-ligand complex by antioxidants. The FRAP assay is carried out under acidic pH conditions in order to maintain iron solubility and more importantly, drive electron transfer. This will increase the redox potential, causing a shift in the dominant reaction mechanism. The FRAP assay was done according to the method described by Benzie and Strain [40] with slightly modifications. The stock solutions included 300 mM acetate buffer (pH 3.6), 10 mM 2,4,6-tris(2-pyridyl)-s-triazine (TPTZ) solution in ethanol, and 20 mM FeCl3 solution in 20 mM HCl. […] An aliquot of 0.1 mL of the tested compound was allowed to react with 3.0 mL of the FRAP working solution and 0.3 mL of water. […] The results are expressed as L(+)-ascorbic acid equivalent (AAE).
(§2) Regression analysis was performed to calculate the dose-response relation and IC50 values were obtained from the equations y = a ± bx.

In test [4] the target is acetylcholinesterase (AChE) from Electrophorus electricus (Electrophorus electricus, UniProt O42275). The test is described as follows: biochemical. The following applies: AChE from E. electricus; 15 min incubation at 37 °C, pH 8; mean ± SD, n = 3; read-out: AChE Inhibition IC50.
acetylcholinesterase (AChE) from Electrophorus electricus, sequence (O42275 24-633): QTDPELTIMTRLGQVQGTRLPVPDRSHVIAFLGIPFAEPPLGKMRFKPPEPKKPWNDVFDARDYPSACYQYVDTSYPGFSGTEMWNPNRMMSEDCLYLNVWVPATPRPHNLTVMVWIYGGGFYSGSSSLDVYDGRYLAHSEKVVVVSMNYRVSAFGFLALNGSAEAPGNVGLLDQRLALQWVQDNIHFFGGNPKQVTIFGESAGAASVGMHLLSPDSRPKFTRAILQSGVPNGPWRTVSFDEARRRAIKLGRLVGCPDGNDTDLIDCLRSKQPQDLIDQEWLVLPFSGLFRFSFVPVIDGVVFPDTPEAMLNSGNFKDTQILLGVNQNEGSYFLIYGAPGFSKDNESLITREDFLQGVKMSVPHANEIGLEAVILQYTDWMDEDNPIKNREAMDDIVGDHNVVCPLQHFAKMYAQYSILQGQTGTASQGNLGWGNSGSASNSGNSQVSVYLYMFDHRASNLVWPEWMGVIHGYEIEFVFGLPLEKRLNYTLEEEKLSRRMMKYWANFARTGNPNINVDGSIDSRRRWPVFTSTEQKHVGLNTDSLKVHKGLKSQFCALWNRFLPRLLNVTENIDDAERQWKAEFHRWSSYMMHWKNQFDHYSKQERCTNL
Test [5] can be described thus: Fe(II)-chelating assay (inhibition of Fe^2+–ferrozine complex formation). The following applies: 10 min, room temperature, 562 nm.
Description: Among the transition metals, Fe^2+ ions are well-known for their significant role as a prooxidants in the lipid oxidation process and the formation of hydroxyl radicals in Fenton-type reactions. However, effective chelating agents can reduce the damage resulting from these reactions. The most important spectrophotometric method for studying chelation activity is the inhibition of the Fe^2+–ferrozine complex formation, during which ferrozine reacts quantitatively with Fe^2+ ions in the […] of a chelating agent and complex formation is disrupted. Measurement of color reduction therefore allows estimation of the metal chelating activity of the coexisting chelator. The chelating abilities on Fe^2+ by the tested compounds were estimated by the method as described by Dinis. Briefly, 0.4 mL of the tested compound was added to 0.05 mL of FeCl2 (2 mM) solution. The reaction was initiated by the addition of ferrozine (0.2 mL, 5 mM). The total volume of the systems was adjusted to 4 mL with ethanol. Then, the mixture was shaken vigorously and left at room temperature for 10 min. […] The percentage of chelating effect was calculated by using the equation below:(4) % Chelating effect = (1 − At/A0) × 100 where A0 is the absorbance of the control and At is the absorbance of the tested compound.
as §2

Where [6] appears, read: read-out: Chelation ability IC50 (Fe^2+ ions).

Several values for one entry are separate records, joined by “and”; a condition that tells them apart may be missing. Equal entries are not always repeated.

`O=C1O[C@H]([C@@H](O)CO)C(O)=C1O` [L(+)-Ascorbic acid]: the IC50 in test [1] amounted to 0.11 µM; in test [2], 1.14 ± 0.03 µM.
Consider `O=C(/C=C/c1ccc(O)c(O)c1)NCCc1ccc(O)c(O)c1` [N-trans-Caffeoyldopamine], for which the concentration for half-maximal inhibition (IC50) in test [1] amounted to 0.24 µM; in test [2], 5.95 ± 0.12 µM; in test [4], 19.1 ± 0.83 µM; in test [5] (read-out: Chelation of ferrous ions IC50), 3480 µM. Also, in test [3], the “FRAP AAE (L(+)-ascorbic acid equivalent)” value was 822.45 μmol/mmol and 822.45 ± 13.53 μmol/mmol.
Regarding `COc1cc(/C=C/C(=O)NCCc2ccc(O)c(O)c2)ccc1O` [N-trans-Feruloyldopamine], the IC50 was determined as 0.74 µM in test [1], 12.29 ± 0.04 µM in test [2], 8.52 ± 0.27 µM in test [4] and 3170 µM in test [5] (setting [6]). Also, in test [3], the “FRAP AAE (L(+)-ascorbic acid equivalent)” value is 661.53 ± 13.51 μmol/mmol.
Take `O=C([O-])CN(CCN(CC(=O)[O-])CC(=O)O)CC(=O)O.[Na+].[Na+]` [Na2EDTA, disodium ethylenediaminetetraacetate]: the concentration for half-maximal inhibition (IC50) in test [5] (setting [6]) was found to be 10 µM.
For the compound `O=C(O)/C=C/c1ccc(O)c(O)c1` [trans-Caffeic acid], the concentration for half-maximal inhibition (IC50) was 1.19 ± 0.02 µM in test [1], 18.9 ± 0.22 µM in test [2] and 12900 µM in test [5] (setting [6]). Besides, the “FRAP AAE (L(+)-ascorbic acid equivalent)” value in test [3] is recorded as 526.05 ± 12.87 μmol/mmol.
In the case of `COc1cc(/C=C/C(=O)O)ccc1O` [trans-Ferulic acid], the IC50 in test [1] worked out at 1.62 ± 0.01 µM; in test [2] it was 19.93 ± 0.18 µM; in test [4] it was 20.6 ± 0.65 µM; in test [5] (setting [6]) it was 5060 µM.

Broadly, the IC50 is the concentration needed to halve the response being measured.
